According to patent US9492495B2, “Therapeutic use of agonists or antagonists of bradykinin receptor 1 or 2, for modulation collateral blood vessel growth” (MAX-DELBRUECK-CENTRUM FUER MOLEKULARE MEDIZIN, priority 2010, dated 2016):

Key:
[1] = tested on: cerebral arteriogenesis (posterior cerebral artery collateral pathway); assay: 3-vessel occlusion (3-VO) cerebral arteriogenesis model: collateral growth / posterior cerebral artery diameter; format: in vivo, rat; settings: for arteriogenesis (collateral growth) / cerebral arteriogenesis: rat 3-VO model; for arteriogenesis (collateral growth): antagonist treatment, 3 weeks post 3-VO (FIG. 5); for artery diameter changes (posterior cerebral artery) / collateral arterial growth: rat 3-VO, 3 weeks; for artery diameter changes (posterior cerebral artery): compared with untreated controls; for collateral arterial growth: ipsilateral and contralateral collateral pathways (FIGS. 5B and 5C); for cerebral arteriogenesis: BR1 agonist treatment, 1 week post 3-VO (FIG. 6)
Protocol: Pharmacological modulation of arteriogenesis was analyzed using a 3 vessel occlusion (3-VO) model for cerebral arteriogenesis in the rat (Occlusion of both vertebral arteries and one carotid artery). Upon occlusion of three of four blood-supplying arteries to the brain, blood flow is redistributed by the recruitment of collateral pathways such as the posterior cerebral artery to supply the hypoperfusion area with blood. The 3-VO model in the rat has been established since 2003 and is acknowledged as a hypoperfusion model for testing cerebral arteriogenesis (Busch, Buschmann et al. 2003). By using the 3-VO model, relevant therapeutic stimulation of arteriogenesis was shown for instance by the application of GM-CSF (Buschmann, Circulation 2003). Either by inhibition or stimulation of the bradykinin receptor signaling pathways, arteriogenesis was determined and physiological parameters of the brain were tested. […] The characterization of arteriogenesis was carried out via measurement of the artery or blood vessel diameter (posterior cerebral artery-PCA) in addition to via a measurement of the cerebrovascular reactivity (perfusion reserves in the brain). Cerebrovascular anatomy was studied after maximal vasodilation by a modification of the postmortem latex perfusion method of Maeda et al (Maeda, Hata et al. 1998).

[2] = tested on: cerebrovascular reactivity (perfusion reserves in the brain); assay: 3-VO cerebral arteriogenesis model: cerebrovascular reactivity (acetazolamide, laser-doppler); format: in vivo; settings: rat; for cerebrovascular reactivity (CVR), increase in blood flow: three weeks after 3-VO (FIG. 5D)
Protocol: Pharmacological modulation of arteriogenesis was analyzed using a 3 vessel occlusion (3-VO) model for cerebral arteriogenesis in the rat (Occlusion of both vertebral arteries and one carotid artery). Upon occlusion of three of four blood-supplying arteries to the brain, blood flow is redistributed by the recruitment of collateral pathways such as the posterior cerebral artery to supply the hypoperfusion area with blood. The 3-VO model in the rat has been established since 2003 and is acknowledged as a hypoperfusion model for testing cerebral arteriogenesis (Busch, Buschmann et al. 2003). By using the 3-VO model, relevant therapeutic stimulation of arteriogenesis was shown for instance by the application of GM-CSF (Buschmann, Circulation 2003).
The characterization of arteriogenesis was carried out via measurement of the artery or blood vessel diameter (posterior cerebral artery—PCA) in addition to via a measurement of the cerebrovascular reactivity (perfusion reserves in the brain). Cerebrovascular anatomy was studied after maximal vasodilation by a modification of the postmortem latex perfusion method of Maeda et al (Maeda, Hata et al. 1998).
CVR is reduced through selective inhibition of the bradykinin B1 and B2 signaling pathways. Negative CVR values are based on the Steal phenomenon (Kuwabara, Ichiya et al. 1995). (FIG. 5D). Upon increase of the CO2 partial pressure under normal conditions, vessels in the brain are capable of increasing blood flow to around 20% of the normal blood flow. Directly after the 3-VO experiment no cerebrovascular reactivity is detectable anymore. Blood flow recovers within 3 weeks post 3-VO and the perfusion reserve is restored to around 10%.

Bradykinin receptor 1 [3] = target: T1, Bradykinin receptor 1 (Homo sapiens, UniProt P46663); settings: described as moderate; cited from earlier work
T1 sequence (P46663 1-353): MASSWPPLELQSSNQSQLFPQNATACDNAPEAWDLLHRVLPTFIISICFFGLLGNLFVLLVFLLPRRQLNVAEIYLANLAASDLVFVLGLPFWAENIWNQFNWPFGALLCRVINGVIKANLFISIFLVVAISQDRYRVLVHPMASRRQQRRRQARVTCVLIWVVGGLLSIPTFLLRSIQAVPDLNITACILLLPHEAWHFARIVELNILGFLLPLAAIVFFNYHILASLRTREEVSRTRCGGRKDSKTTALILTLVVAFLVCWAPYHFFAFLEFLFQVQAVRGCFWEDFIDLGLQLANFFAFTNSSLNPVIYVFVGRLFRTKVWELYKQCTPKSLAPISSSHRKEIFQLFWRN

[4] = relative to the natural ligand Lys-desArg-bradykinin; cited from earlier work
Bradykinin receptor 1 [5] = target: T1, Bradykinin receptor 1; settings: described as moderate; cited from earlier work; remark: listed apart in the source

For `NC(N)=NCCC[C@@H](N)C(=O)N[C@@H](CCCN=C(N)N)C(=O)N1CCC[C@H]1C(=O)N1C[C@H](O)C[C@H]1C(=O)NCC(=O)N[C@@H](Cc1cccs1)C(=O)N[C@@H](CO)C(=O)N1Cc2ccccc2C[C@@H]1C(=O)N1[C@H](C(=O)N[C@@H](CCCN=C(N)N)C(=O)O)C[C@@H]2CCCC[C@@H]21` [HOE-140, icatibant], the “arteriogenesis (collateral growth)” value [1] was “inhibited”, the “artery diameter changes (posterior cerebral artery)” value [1] was “reduced collateral growth” and the collateral arterial growth [1] was “slightly”. The “cerebrovascular reactivity (CVR), increase in blood flow” value [2] was “no increase in blood flow is detected”.

With (Des-Arg^9, Leu^8)-bradykinin [H1960] the “arteriogenesis (collateral growth)” value [1] was “inhibited”, the “artery diameter changes (posterior cerebral artery)” value [1] was “increase in diameter to a lesser extent than in the untreated controls” and the collateral arterial growth [1] was “strongly reduced”. For the same compound, the “cerebrovascular reactivity (CVR), increase in blood flow” value [2] was “no increase in blood flow is detected”.

In the case of Sar-[D-Phe8]-des-Arg9-bradykinin [R838], the cerebral arteriogenesis [1] is reported as “stimulated therapeutically”, the cerebral arteriogenesis ([1]; listed as Sar[DPhe8]desArg-bradykinin) is reported as “therapeutically enhanced” and the “diameter of the posterior cerebral artery (PCA)” value ([1]; rat, seven days after 3-VO, versus untreated rats after 3-VO (FIG. 6B,C)) is reported as “significantly greater”. For the same compound, the “cerebrovascular reactivity (CVR)” value ([2]; 1 week post 3-VO (FIG. 6D)) was “significantly increased”, the “potency relative to the natural ligand Lys-desArg-bradykinin” value (Bradykinin receptor 1 [3]) was ~2 fold less and the susceptibility toward proteolysis [4] was “lower susceptibility toward proteolysis”. For the same compound, the “affinity relative to the natural ligand Lys-desArg-bradykinin” value (Bradykinin receptor 1 [5]) was “about 11 fold less”.
